{"source": "patent EP3099166B1", "about": "“METHOD TO CONTROL ST[…] SEPTORIA TRITICI” (priority 2014, dated 2015)", "key": {"Septoria tritici [1]": {"system": "Septoria tritici", "assay": "Glasshouse trial on wheat, curative (K4) application (Example 2)", "assay_type": "in vivo", "conditions": "for % Efficacy: wheat, R12 isolates, G143A, 4 weeks after application", "description": "(§1) The trials were conducted under glasshouse conditions. Wheat was planted and grown under standard conditions with adequate supply of water and nutrients. At BBCH 11, an application of the test compounds was made. Fungicides were applied curatively 4 days after inoculation (K4) with different rates. The Septoria isolates used for inoculation were classified \"R12\" according their cyp51 haplotype (less sensitive to triazoles due to V136A, 1381V, Y461S/H and S524T mutation in cyp51 gene) and resistant to strobilurins due to G143A mutation in cytochrome b gene.\n(§2) Disease levels were assessed by evaluating the average percentage of diseased leaf area 4 weeks after application.\n(§3) The disease levels were converted into efficacies. An efficacy of 0 means that the level of the treated plants corresponds to that of the untreated control plants; an efficacy of 100 means that the treated plants had no disease at all."}, "Septoria tritici [2]": {"system": "Septoria tritici", "assay": "Glasshouse trial on wheat, preventive (P1) or curative (K4) application (Example 1)", "assay_type": "in vivo", "conditions": "Zymoseptoria tritici", "description": "as §1, with “applied preventively (1 day before inoculation, P1) or” for “applied”, “curatively (4” for “curatively 4”, “after inoculation, K4) and” for “after inoculation (K4)”, “V136A, I381V,” for “V136A, 1381V,”\nas §2, §3"}, "[3]": {"conditions": "Zymoseptoria tritici, 672 h, read-out: % Efficacy"}}, "note": "Read-outs that look alike come from different tables or passages of the source."}
{"compound": "CO/C=C(/C(=O)OC)c1ccccc1COc1cccc(C(F)(F)F)n1", "note": "[Picoxystrobin, picoxystrobin]", "values": [{"measurement": "% Efficacy", "setting": "Septoria tritici [1]; 83 g a.i./ha, curative (K4, 4 days after inoculation)", "value": 0, "unit": "%"}, {"measurement": "% Efficacy", "setting": "Septoria tritici [1]; 250 g a.i./ha, curative (K4)", "value": 7, "unit": "%"}]}
{"compound": "OC(Cc1ccccc1Cl)(Cn1nc[nH]c1=S)C1(Cl)CC1", "note": "(stereo not drawn) [Prothioconazole, prothioconazole]", "values": [{"measurement": "Percent disease control efficacy at 67 g/ha", "setting": "Septoria tritici [2]; 672 h, read-out: % Efficacy, 67 g a.i./ha, curative (K4), R12 isolates, G143A, 4 weeks after application", "value": 7, "unit": "%"}, {"measurement": "Percent disease control efficacy at 67 g/ha", "setting": "Septoria tritici [2]; 672 h, read-out: % Efficacy, 67 g a.i./ha, preventative (P1), R12 isolates, G143A, 4 weeks after application", "value": 10, "unit": "%"}, {"measurement": "Emax at 67 g/ha", "setting": "Septoria tritici [1]; [3]", "value": 7, "unit": "%"}]}
{"compound": "COC(=O)N(OC)c1ccccc1COc1ccn(-c2ccc(Cl)cc2)n1", "note": "[Pyraclostrobin, pyraclostrobin]", "values": [{"measurement": "Percent disease control efficacy at 250 g/ha", "setting": "Septoria tritici [2]; 672 h, read-out: % Efficacy, 250 g a.i./ha, preventative (P1), R12 isolates, G143A, 4 weeks after application", "value": 51, "unit": "%"}, {"measurement": "Percent disease control efficacy at 83 g/ha", "setting": "Septoria tritici [2]; read-out: % Efficacy, 83 g a.i./ha, curative (K4, 4 days after inoculation), R12 isolates, G143A, assessed 4 weeks after application", "value": 10, "unit": "%"}]}
{"compound": "CCCC1COC(Cn2cncn2)(c2ccc(Cl)cc2Cl)O1", "note": "(stereo not drawn) [Propiconazole, propiconazole]", "values": [{"measurement": "Percent disease control efficacy at 33 g/ha", "setting": "Septoria tritici [2]; 672 h, read-out: % Efficacy, 33 g a.i./ha, curative (K4), R12 isolates, G143A, 4 weeks after application", "value": 7, "unit": "%"}, {"measurement": "Percent disease control efficacy at 33 g/ha", "setting": "Septoria tritici [2]; 672 h, read-out: % Efficacy, 33 g a.i./ha, preventative (P1), R12 isolates, G143A, 4 weeks after application", "value": 10, "unit": "%"}, {"measurement": "Percent disease control efficacy at 125 g/ha", "setting": "Septoria tritici [2]; 672 h, read-out: % Efficacy, 125 g a.i./ha, preventative (P1), R12 isolates, G143A, 4 weeks after application", "value": 40, "unit": "%"}, {"measurement": "Emax at 33 g/ha", "setting": "Septoria tritici [1]; [3]", "value": 7, "unit": "%"}, {"measurement": "Emax at 125 g/ha", "setting": "Septoria tritici [1]; [3]", "value": 20, "unit": "%"}]}
